Like-named read-outs stand apart in the source and are kept apart here.
How the values were obtained:
[1] = biological target: T1, PDE 1 (Bos taurus, UniProt P14100); test: PDE 1 enzyme inhibition (SPA); format: biochemical; settings: PDE 1 from bovine heart (Sigma P0520); read-out: PDE 1 IC 50
T1 construct: partially purified from bovine heart; purchased Sigma P0520; host or cells: bovine heart
Procedure: Lyophilised PDE 1 enzyme, partially purified from bovine heart, was purchased from Sigma (P0520).
The enzyme consists of the PI fraction reported by Ho et al. (Biochim Biophys Acta, 1976, vol. 429(2), 461-473).
The lyophilised enzyme was reconstituted with 30% v/v ethylene glycol at a concentration of 500 µg/ml and stored at −20° C.
PDE 1 activity was determined using the Scintillation Proximity Assay (SPA) Amersham kit consisting of tracer ^3H-cAMP, PDE assay buffer (10×solution: 500 mM TRIS/HCl pH 7.5, 83 mM MgCl2 and 17 mM EGTA) and Yttrium SPA PDE beads (containing 18 mM zinc sulphate).
(§1) The radioactivity of the beads was measured using a scintillation counter (Packard model MINAXI β TRI-CARB 4000 SERIES).

[2] = biological target: PDE 3 (Homo sapiens, UniProt Q14432); test: PDE 3 enzyme inhibition (SPA); format: biochemical, healthy volunteers; settings: PDE 3 from platelet rich plasma; 3H-cAMP; read-out: PDE 3-5 IC 50 (nM): PDE 3
Procedure: PDE 3 and PDE 5 enzymes were purified from platelet rich plasma (PRP) obtained from healthy volunteers.
PDE 3 and PDE 5 enzymes were purified according to Simpson A. W. M. et al. (Biochem. Pharmacol. 1988, 37, 2315-2320) partially modified for the FPLC technique (Fast Protein Liquid Chromatography).
The PRP was diluted 1:2 in saline solution and centrifuged at 2000×g for 15 minutes at room temperature.
The pellet was suspended in 10 ml of lysis solution (155 mM NH4Cl, 10 mM KHCO3 and 0.1 mM Na2EDTA pH 7.4) and incubated for 10 minutes on ice-bath to remove erythrocyte contamination.
After centrifugation, platelets were suspended in 10 ml of 20 mM Bis-Tris, 2 mM EDTA, 5 mM β-mercaptoethanol, 50 mM sodium acetate, 2 mM benzamidine) and homogenised with a Polytron homogeniser on ice-bath.
The homogenate was centrifuged and the supernatant applied to a UNO Q12 column connected to a Biologic Chromatography system (FPLC, BIO RAD).
PDE 3 and PDE 5 enzymes were eluted with a linear 0.05-1M sodium acetate gradient and the elution fractions were collected for PDE enzymes activity assay.
Fractions containing PDE activities were pooled, dialysed overnight against distilled water and concentrated 10 times by an Amicon filtration system (using YM10 membrane filter). Ethylene glycol was added to a final concentration of 30% v/v and the solution stored at −20° C.
Enzymatic activity was stable for several weeks under these conditions.
Enzymes activity assay were performed using Scintillation Proximity Assay (SPA) Amersham kit consisting of tracer ^3H-cAMP for PDE3 or ^3H-cGMP for PDE5, PDE assay buffer (10×solution: 500 mM TRIS/HCl pH 7.5, 83 mM MgCl2 and 17 mM EGTA) and Yttrium SPA PDE beads (containing 18 mM zinc sulphate).
as §1

[3] = tested on: TNFα release; test: TNFα release in whole human blood (LPS, ELISA); format: cell-based
Procedure: The blood samples obtained from healthy volunteers were collected in heparinised tubes and diluted 1:5 with RPMI 1640 without serum addition.
The test was carried out in 96-well plates and samples containing 150 μl of diluted blood and 150 μl of RPMI 1640 with control vehicle or with different concentration of the compounds of the present invention were incubated at 37° C. in a 5% CO2 humidified atmosphere for 30 minutes.
The whole blood in the assay samples was diluted 1:10 (v/v).
The samples were stimulated with LPS (lipopolysaccharide from E. Coli: serotype B 0:55, Sigma) 0.25 μg/ml and incubated for 24 hours.
After centrifugation, the supernatants were collected for TNFα levels determination by a commercially available ELISA kit (Biosource).
The test objects were dissolved in DMSO at 10^−2 M and further diluted in RPMI 1640. […] Each compound was tested in duplicate at nine concentrations and the data obtained were further confirmed using blood samples from different donors.
The percent inhibition of TNFα production at each concentration was calculated and IC50 was determined using a 4-parameters logistic equation (Origin calculation program, Microcal Software Inc.)

[4] = whole human blood diluted 1:10, LPS 0.25 μg/ml, 24 hours, read-out: IC 50 (nM) h-WB 1:10
[5] = h-WB (whole human blood), LPS stimulated, read-out: IC 50 (nM) h-WB

T1 sequence (P14100 1-514 isoform P14100-2): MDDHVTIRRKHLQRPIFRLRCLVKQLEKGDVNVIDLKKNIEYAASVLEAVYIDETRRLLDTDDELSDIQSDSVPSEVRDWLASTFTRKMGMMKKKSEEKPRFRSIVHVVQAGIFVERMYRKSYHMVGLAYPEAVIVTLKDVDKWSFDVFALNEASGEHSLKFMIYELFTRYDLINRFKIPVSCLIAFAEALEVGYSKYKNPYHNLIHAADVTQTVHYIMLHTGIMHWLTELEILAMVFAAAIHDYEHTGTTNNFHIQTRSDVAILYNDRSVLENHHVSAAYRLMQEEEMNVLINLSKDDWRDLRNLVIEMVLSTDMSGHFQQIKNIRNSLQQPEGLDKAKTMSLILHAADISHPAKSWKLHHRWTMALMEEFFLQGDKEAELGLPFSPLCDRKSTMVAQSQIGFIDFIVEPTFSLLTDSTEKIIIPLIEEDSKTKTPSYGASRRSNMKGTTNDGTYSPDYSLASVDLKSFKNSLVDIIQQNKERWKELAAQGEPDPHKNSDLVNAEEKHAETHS
PDE 3, sequence (Q14432 674-1093 limits assumed): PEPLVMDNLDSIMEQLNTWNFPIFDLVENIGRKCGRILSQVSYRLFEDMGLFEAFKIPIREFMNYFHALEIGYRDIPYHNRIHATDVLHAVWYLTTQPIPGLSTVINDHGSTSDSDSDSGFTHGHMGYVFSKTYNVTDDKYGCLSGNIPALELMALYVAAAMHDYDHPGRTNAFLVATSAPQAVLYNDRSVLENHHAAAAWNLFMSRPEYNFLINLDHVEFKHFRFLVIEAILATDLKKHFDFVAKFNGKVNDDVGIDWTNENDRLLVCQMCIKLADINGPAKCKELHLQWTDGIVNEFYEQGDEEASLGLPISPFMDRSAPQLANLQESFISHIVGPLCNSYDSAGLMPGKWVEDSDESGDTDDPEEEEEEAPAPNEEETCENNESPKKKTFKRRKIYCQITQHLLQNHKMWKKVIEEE

With `COc1ccc2c(Cc3c(Cl)cncc3Cl)nnc(-c3sccc3C(=O)O)c2c1` [Compound 10, 2-[4-(3,5-dichloro-pyridin-4-ylmethyl)-7-methoxy-phthalazin-1-yl]-thiophene-3-carboxylic Acid] the IC50 [1] was greater than 10 µM, the IC50 [2] was greater than 10000 nM and the IC50 [3, 4] was 18000 nM.
Work on `COc1ccc2c(Cc3c(Cl)cncc3Cl)nnc(-c3cccc(C(=O)O)c3)c2c1` [Compound 2, 3-[4-(3,5-dichloro-pyridin-4-ylmethyl)-7-methoxy-phthalazin-1-yl]-benzoic Acid] yielded an IC50 [1] greater than 10 µM, an IC50 [2] greater than 10000 nM and an IC50 [3, 5] of 33000 nM. For the same compound, the IC50 [3, 4] was 2470 nM.
`O=C(O)c1cccc(-c2nnc(Cc3c(Cl)cncc3Cl)c3ccc(OC(F)F)cc23)c1` [Compound 8, 3-[4-(3,5-dichloro-pyridin-4-ylmethyl)-7-difluoromethoxy-phthalazin-1-yl]-benzoic Acid] gave an IC50 [1] greater than 10 µM, an IC50 [2] greater than 10000 nM and an IC50 [3, 5] of 14300 nM. The IC50 [3, 4] was 1230 nM.

— US20060166996A1, “Phthalazine derivatives as phosphodiesterase 4 inhibitors” (Zambon Group S.P.A., priority 2002, published 2006)
